Marks after values point to notes of the source that are not given here.
Tests used:
[1] = system: mice fed with high-fat feed; experiment: Lipid-lowering function test (animal test): serum lipids (HDL-C, LDL-C) of mice on high-fat feed; format: in vivo, C57BL/6 mice; conditions: gavage, 8 weeks
Experimental: Samples: The water-insoluble dietary fiber component ACA-DK of Antrodia cinnamomea, which is prepared as a suspension of a certain concentration and placed at 4° C. for further use.
Test animals: 40 C57BL/6 SPF-grade mice weighing 18-22 g were purchased from Shanghai JieSijie Experimental Animal Co., Ltd. (license No. SCXK20180004). They were randomly divided into 4 groups with 10 mice in each group.
Test method: In test environment, the mice were divided into the following 4 groups: Normal group NG (gavage with normal saline), model group MG (high-fat diet), positive control group PG (gavage with lovastatin) and insoluble dietary fiber group LG. Mice in normal group NG were fed with basic feed, and mice in the rest of the groups were fed with high-fat feed. For mice in insoluble dietary fiber group LG, gavage with the dietary fiber was administered once a day for 8 weeks.
Feeding conditions: Mice were raised in an IVC system with a temperature of 18-22° C. and a relative humidity of 40-70%. License No. of the laboratory animal using license is SCXK20180004. The irradiated sterile feed for mice was purchased from Jiangsu Synergy Pharmaceutical Bioengineering Co., Ltd.
Basic feed: Flour 20%, bran 25%, corn 20%, rice flour 10%, soybean meal 20%, fish meal 2%, bone meal 2%, salt 0.9%, vitamin 0.1%;
High-fat feed: Lard 10%, sucrose 5%, cholesterol 1%, bile salt 0.3%, basic feed 83.7%. […]

[2] = system: mice fed with high-fat feed; experiment: Lipid-lowering function test (animal test): TG and TC of mice on high-fat feed; format: in vivo, C57BL/6 mice; conditions: gavage, 8 weeks
From the text: SPSS 22.0 Software was used to statistically analyze the original data of each experiment, and the ANOVA program was used to test the significance of the data.

Structure (SMILES): CC[C@H](C)C(=O)O[C@H]1C[C@@H](C)C=C2C=C[C@H](C)[C@H](CC[C@@H]3C[C@@H](O)CC(=O)O3)[C@H]21 [lovastatin]
- HDL-C [1]: 2.45 ± 0.20 ^D mmol/L
- LDL-C [1]: 7.73 ± 3.07 ^b mmol/L
- TC [2]: 0.024 ± 0.005 ^a mmol/g prot
- TG [2]: 0.031 ± 0.019 ^B mmol/g prot

— patent US20250114415A1, “METHOD FOR LOWERING CHOLESTEROL AND LIPID LEVELS USING THE ANTRODIA CINNAMOMEA WATER-INSOLUBLE DIETARY FIBER” (UNIVERSITY OF SHANGHAI FOR SCIENCE AND TECHNOLOGY, priority 2020, published 2025)
